In PMC12216189 (Nature Communications, 2025):
Ends that are not written are not given here.

Key:
A. baumannii 19606 [1] = assay: Biofilm formation assay; type: cell-based, Acinetobacter baumannii; settings: for Biofilm-enhancing activity of HNP1 mutants (CV staining): HNP1 Ala-scan mutants and analogs, Fig. 6F
A. baumannii 19606 [2] = assay: Real colony count bactericidal assay in LB broth; type: cell-based, Acinetobacter baumannii; settings: 4 μM
[3] = test system: S. aureus, P. aeruginosa, and A. baumannii; settings: various bacteria, including S. aureus, ref [24]–[26]; cited from earlier work
Shigella = settings: sub-lethal concentrations; ref [78]; cited from earlier work
[4] = target: Fam-A11K-HNP1 (fluorescently labeled synthetic human neutrophil peptide 1) (human); assay: fluorescence polarisation
drug-resistant bacteria = settings: ref [84]; cited from earlier work
A. baumannii 19606 [5] = assay: Bactericidal assay of kanamycin with/without HNP1, no preincubation; type: cell-based, Acinetobacter baumannii; settings: 0–100 μg/ml, LB broth, 24 h
Staphylococcus = settings: ref [26]; cited from earlier work
A. baumannii 19606 [6] = assay: Competitive inhibition by recombinant OmpA of HNP1-promoted biofilm formation; type: cell-based, Acinetobacter baumannii; settings: 0–2 μM OmpA

HBD1: human β-defensin (DHYNCVSSGGQCLYSACPIFTKIQGTCYRGKAKCCK; ends and bridges not checked; cysteine pairing not given here; UniProt P60022 33-68, looked up)
Effect on biofilm formation (CV staining) (A. baumannii 19606 [1]; 4 μM, A. baumannii 19606): inactive in promoting biofilm formation

R15A: HNP1 Ala-substitution mutant
Biofilm-enhancing activity of HNP1 mutants (CV staining) (A. baumannii 19606 [1]): significant decrease in biofilm enhancement

LL37: human cathelicidin (LLGDFFRKSKEKIGKEFKRIVQRIKDFLRNLVPRTES; Antibacterial peptide LL-37; UniProt P49913 134-170, looked up)
Bacterial killing in LB broth (A. baumannii 19606 [2]): killing of the bacteria even in the presence of LB broth
Effect on biofilm formation [3]: inhibit biofilm formation by various bacteria
Effect on biofilm formation (CV staining) (A. baumannii 19606 [1]; 4 μM, A. baumannii 19606): significantly inhibited biofilm formation

ATCYCRTGRCATRESLSGVCEISGRLYRLCCR (disulfide (positions not given here)) [HD5]
Shigella infection of epithelial cells and tissues (Shigella): promotes, at sub-lethal concentrations, Shigella infection
Effect on biofilm formation (CV staining) (A. baumannii 19606 [1]; 4 μM, A. baumannii 19606): slightly enhanced it

T18A: HNP1 Ala-substitution mutant
Biofilm-enhancing activity of HNP1 mutants (CV staining) (A. baumannii 19606 [1]): significant decrease in biofilm enhancement

TM-ΔL1L2 (transmembrane domain of OmpA with extracellular loops L1 and L2 deleted) (domain or fragment)
fold decrease of binding against the transmembrane domain of OmpA [4]: 3 fold

VCSCRLVFCRRTELRVGNCLIGGVSFTYCCTRV (disulfide (positions not given here)) [HNP4]
Effect on biofilm formation (CV staining) (A. baumannii 19606 [1]; 0–32 μM, LB broth, 96-well plate, 24 h, 37 °C): largely inactive
Effect on biofilm formation (CV staining) (A. baumannii 19606 [1]; 4 μM, A. baumannii 19606): inactive in promoting biofilm formation

W26A-HNP1: dimerization-debilitating analog
Biofilm-enhancing activity of HNP1 mutants (CV staining) (A. baumannii 19606 [1]): completely lost their biofilm-enhancing activity

AFTCHCRR-SCYSTEYSYGTCTVMGINHRFCCL (disulfide) [HD6]
Effect on biofilm formation (CV staining) (A. baumannii 19606 [1]; 4 μM, A. baumannii 19606): slightly enhanced it

I20A/L25A: HNP1 Ala-substitution mutant
Biofilm-enhancing activity of HNP1 mutants (CV staining) (A. baumannii 19606 [1]): significant decrease in biofilm enhancement

colistin
Potentiation of antibacterial activity of classic antibiotics (drug-resistant bacteria): potentiate the antibacterial activity of classic antibiotics

OmpA-ΔL1L2 (full-length OmpA with extracellular loops L1 and L2 deleted) (natural protein)
fold decrease of binding against full-length OmpA [4]: 3 fold

I6A: HNP1 Ala-substitution mutant
Biofilm-enhancing activity of HNP1 mutants (CV staining) (A. baumannii 19606 [1]): significant decrease in biofilm enhancement

NC[C@H]1O[C@H](O[C@H]2[C@H](O)[C@@H](O[C@H]3O[C@H](CO)[C@@H](O)[C@H](N)[C@H]3O)[C@H](N)C[C@@H]2N)[C@H](O)[C@@H](O)[C@@H]1O [Kanamycin]
Kanamycin effect on bacterial growth and survival (A. baumannii 19606 [5]): dose-dependently inhibited bacterial growth and survival

HBD3: human β-defensin 3, cited only (GIINTLQKYYCRVRGGRCAVLSCLPKEEQIGKCSTRGRKCCRRKK; ends and bridges not checked; cysteine pairing not given here; UniProt P81534 23-67, looked up)
Effect on biofilm formation (Staphylococcus): inhibitory against biofilm formation

B1: full-length recombinant OmpA (outer membrane protein A) of Acinetobacter baumannii ATCC 19606 (natural protein)
chain: GVTVTPLLLGYTFQDSQHNNGGKDGNLTNGPELQDDLFVGAALGIELTPWLGFEAEYNQVKGDVDGASAGAEYKQKQINGNFYVTSDLITKNYDSKIKPYVLLGAGHYKYDFDGVNRGTRGTSEEGTLGNAGVGAFWRLNDALSLRTEARATYNADEEFWNYTALAGLNVVLGGHLKPAAPVVEVAPVEPTPVAPQPQELTEDLNMELRVFFDTNKSNIKDQYKPEIAKVAEKLSEYPNATARIEGHTDNTGPRKLNERLSLARANSVKSALVNEYNVDASRLSTQGFAWDQPIADNKTKEGRAMNRRVFATITGSRTVVVQPGQEAAAPAAAQ
Kd [4]: 500 nM

B2: OmpA: recombinant A. baumannii outer membrane protein A with His tag (protein)
chain: GVTVTPLLLGYTFQDSQHNNGGKDGNLTNGPELQDDLFVGAALGIELTPWLGFEAEYNQVKGDVDGASAGAEYKQKQINGNFYVTSDLITKNYDSKIKPYVLLGAGHYKYDFDGVNRGTRGTSEEGTLGNAGVGAFWRLNDALSLRTEARATYNADEEFWNYTALAGLNVVLGGHLKPAAPVVEVAPVEPTPVAPQPQELTEDLNMELRVFFDTNKSNIKDQYKPEIAKVAEKLSEYPNATARIEGHTDNTGPRKLNERLSLARANSVKSALVNEYNVDASRLSTQGFAWDQPIADNKTKEGRAMNRRVFATITGSRTVVVQPGQEAAAPAAAQ
modifications: left off: His tag, end not stated, state not stated
Effect of recombinant OmpA on HNP1-promoted biofilm formation (A. baumannii 19606 [6]; 8 μM HNP1): dose-dependently inhibited biofilm formation promoted by HNP1
Effect of recombinant OmpA on biofilm formation without HNP1 (A. baumannii 19606 [6]; no HNP1): little effect on biofilm formation
